Measurements as given in US12409200B2, “Composition for treating hair loss or promoting hair growth comprising milk thistle flower extract as an active ingredient” (BioSpectrum, Inc., priority 2021, dated 2025).

Test system: human skin
Test: Human skin safety test: repeated insult patch test
Assay type: in vivo
Settings: for Number of subjects showing reaction ±: grade ±
Protocol: In order to confirm that the extract of seed-removed milk thistle flowers according to the present invention is safe for human skin, a skin safety verification test was performed. To this end, a repeated insult patch test was conducted. Nourishing creams containing the seed-removed milk thistle extract of Example 1 in amounts of 0.1%, 0.5% and 1%, respectively, were prepared. Specifically, a water phase containing purified water, triethanolamine and propylene glycol was dissolved by heating to 70° C. and then emulsified by adding a solution obtained by dissolving beeswax, liquid paraffin, an oil component, an emulsifier and a preservative by heating to 70° C. After completion of emulsification, the solution was cooled to 45° C., and the seed-removed milk thistle flower extract was added thereto in amounts of 0.1%, 0.5% and 1% and dispersed therein, followed by cooling to 30° C. As the content of the extract of seed-removed milk thistle flowers was increased from 0.1% to 0.5% and 1%, the content of liquid paraffin was decreased from 9.91% to 9.51% and 9.01%, respectively, thereby preparing nourishing creams. Using the nourishing creams prepared as described above, a repeated insult patch test was conducted on the upper arm areas of 30 healthy adults every other day for a total of 9 times for 24 hours per time to determine whether the extract of seed-removed milk thistle flowers irritated the skin. The patch test was performed using a Finn chamber (Epitest Ltd., Finland). 15 μl of each of the external skin preparations was dropped into the chamber, and then the patch test was performed. Average degree of reaction=[[(reaction index×degree of reaction)/(total number of subjects×highest score (4)]×100]÷number of tests (9) [Equation 2] In the degree of reaction, ± represents a score of 1 point, […], and ++ represents a score of 4. When the average degree of reaction is less than 3, the corresponding composition is determined to be safe.

Compound: CC(C)=CCC/C(C)=C/CC/C(C)=C/CC/C=C(\C)CC/C=C(\C)CCC=C(C)C [Control (squalene), squalene]
- Average degree of reaction (30 healthy adults, upper arm, 9 patch tests of 24 hours, Equation 2, less than 3 = safe): 0.18
- Number of subjects showing reaction ± (Week 1, 1st test): 1
- Number of subjects showing reaction ± (Week 1, 2nd test): 1
